The source of these data is patent US20250221966A1, “RXFP1 AGONISTS” (BRISTOL-MYERS SQUIBB COMPANY, priority 2021, published 2025).

The experiment concerns the target T1, human RXFP1 (Homo sapiens, UniProt Q9HBX9).
T1 construct: expressed in transfected cells
T1 sequence (Q9HBX9 1-757): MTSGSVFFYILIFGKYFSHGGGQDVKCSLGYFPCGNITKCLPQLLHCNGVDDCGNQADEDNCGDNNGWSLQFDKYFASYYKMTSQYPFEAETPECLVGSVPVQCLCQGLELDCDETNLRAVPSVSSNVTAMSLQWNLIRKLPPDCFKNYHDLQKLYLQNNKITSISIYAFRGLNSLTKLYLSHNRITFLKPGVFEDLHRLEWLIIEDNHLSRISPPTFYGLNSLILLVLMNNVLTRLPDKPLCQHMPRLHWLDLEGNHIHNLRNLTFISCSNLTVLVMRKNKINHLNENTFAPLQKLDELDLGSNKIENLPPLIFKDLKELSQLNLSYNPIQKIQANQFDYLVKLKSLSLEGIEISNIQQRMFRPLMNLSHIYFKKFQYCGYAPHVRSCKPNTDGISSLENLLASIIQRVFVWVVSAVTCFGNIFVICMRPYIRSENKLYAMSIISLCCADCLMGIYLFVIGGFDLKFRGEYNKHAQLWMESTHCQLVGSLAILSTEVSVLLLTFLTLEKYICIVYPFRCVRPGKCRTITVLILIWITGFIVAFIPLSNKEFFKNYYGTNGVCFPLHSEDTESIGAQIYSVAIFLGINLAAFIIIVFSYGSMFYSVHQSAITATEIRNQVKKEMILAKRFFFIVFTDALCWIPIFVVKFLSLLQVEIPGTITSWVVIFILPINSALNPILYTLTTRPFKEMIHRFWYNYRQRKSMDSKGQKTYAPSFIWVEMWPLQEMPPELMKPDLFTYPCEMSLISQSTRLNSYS
Nature of the experiment: RXFP1 cAMP assay (hRXFP1 HEK293 cAMP assay, HTRF). Conditions: HEK293 cells stably expressing human RXFP1, 30 min at room temperature, read-out: cAMP hRXFP1 HEK293 Assay EC50. It is filed as cell-based. The method in brief:
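HEK293 cells stably expressing human RXFP1 were suspended in HBSS (Ca/Mg) with 20 mM HEPES, 0.05% BSA and 0.5 mM IBMX, then treated with compounds (0.010 nM–50 μM, 2% DMSO final) for 30 min at room temperature. Intracellular cAMP was measured by HTRF, and potency was derived from 4-parameter logistic fits.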
Background: Changes in cAMP serve as a functional read-out for many G protein-coupled receptors.

Take `COc1cc(F)c(F)cc1C(=O)N[C@@H]1C2CCC(/C2=C/c2cnoc2)[C@@H]1C(=O)Nc1ccc(F)c(C(F)(F)F)c1` (some centres unmarked) [compound 39]: the EC50 came out at 88 nM.
The value for `COc1ccc(C2=NO[C@@H]3[C@H](O)CC[C@H]23)cc1C(=O)N[C@H]1[C@@H](C(=O)Nc2ccc(F)c(C(F)(F)F)c2)[C@H]2CC[C@@H]1/C2=C\C1CC1` (single isomer, unassigned) [compound 583] was 74.9 nM; that for `COc1ccc(-c2cnc3cc(CO)ccn23)cc1C(=O)N[C@@H]1C2CCC(/C2=C/C2CC2)[C@@H]1C(=O)Nc1ccc(F)c(C(F)(F)F)c1` (some centres unmarked) [compound 974] was 4.5 nM; that for `COc1ccc(-c2cccnc2)cc1C(=O)N[C@H]1[C@@H](C(=O)Nc2ccc(F)c(C(F)(F)F)c2)[C@H]2CC[C@@H]1/C2=C\C(F)(F)F` [Example 310, (1R,2S,3R,4R,Z)—N-(4-fluoro-3-(trifluoromethyl)phenyl)-3-(2-methoxy-5-(pyridin-3-yl)benzamido)-7-(2,2,2-trifluoroethylidene)bicyclo[2.2.1]heptane-2-carboxamide] was 162 nM.
The value for `COc1ccccc1C(=O)N[C@H]1[C@@H](C(=O)Nc2ccc(F)c(C(F)(F)F)c2)[C@H]2CC[C@@H]1/C2=C\c1ccccc1` [compound 90] was 330 nM; that for `COc1cc(F)c(F)cc1C(=O)N[C@@H]1C2CCC(/C2=C/C=C/c2ccccc2)[C@@H]1C(=O)Nc1ccc(F)c(C(F)(F)F)c1` (some centres unmarked) [compound 64] was 520 nM.
Turning to `COc1ccc(C2=NOC(C)(C(=O)O)C2)cc1C(=O)N[C@@H]1C2CCC(/C2=C/C2CC2)[C@@H]1C(=O)Nc1ccc(F)c(C(F)(F)F)c1` (some centres unmarked) [compound 422], the EC50 amounted to 55 nM.
Consider `COc1ccc(-c2ccc(C(CC(=O)O)C(F)(F)F)cc2F)cc1C(=O)N[C@H]1[C@@H](C(=O)Nc2ccc(F)c(C(F)(F)F)c2)[C@H]2CC[C@@H]1/C2=C\C1CC1` (some centres unmarked) [compound 883], for which the half-maximal effective concentration (EC50) came to 2.5 nM.
`COc1ccc(C2=NOC3(CO)CCC23CO)cc1C(=O)N[C@H]1[C@@H](C(=O)Nc2ccc(F)c(C(F)(F)F)c2)[C@H]2CC[C@@H]1/C2=C\C1CC1` (single isomer, unassigned) [Example 461]: the half-maximal effective concentration (EC50) amounted to 2.6 nM.
The figure for `O=C(N[C@H]1[C@@H](C(=O)Nc2ccc(F)c(C(F)(F)F)c2)[C@H]2CC[C@@H]1/C2=C\C1CC1)c1cccc(C2=NOC3CC(O)CC23)c1` (some centres unmarked) [compound 628] is 177 nM; for `COc1ccc(C2=NOC3COCC23)cc1C(=O)N[C@H]1[C@@H](C(=O)Nc2ccc(F)c(C(F)(F)F)c2)[C@H]2CC[C@@H]1/C2=C\c1cnoc1` (some centres unmarked) [compound 802] it is 3 nM.
Take `COc1c(F)cc(C2=NOC3CC(CO)CC23)cc1C(=O)N[C@H]1[C@@H](C(=O)N[C@H](C)C2(C)CC2)[C@H]2CC[C@@H]1/C2=C\C1CC1` (some centres unmarked) [compound 757]: the 50% effective concentration (EC50) turned out to be 0.9 nM.
The value for `COc1ccc(C2=NOC(C(N)=O)C2)cc1C(=O)N[C@@H]1C2CCC(/C2=C/C2CC2)[C@@H]1C(=O)Nc1ccc(F)c(C(F)(F)F)c1` (some centres unmarked) [compound 404] was 45 nM; that for `COc1ccc(C2=NOC3CC(CO)CC23)cc1C(=O)N[C@H]1[C@@H](C(=O)Nc2ccc(F)c(C(F)(F)F)c2)[C@H]2CC[C@@H]1/C2=C\C(F)(F)F` (some centres unmarked) [compound 533] was 23.4 nM; that for `COc1ccc(-c2cc(C3=NOC4CC(CO)CC34)ccc2F)cc1C(=O)N[C@H]1[C@@H](C(=O)Nc2ccc(F)c(C(F)(F)F)c2)[C@H]2CC[C@@H]1/C2=C\C1CCCC1` (some centres unmarked) [compound 949] was 3.6 nM.
As to `COc1ccc(-c2ccc3c(c2)nnn3CC(=O)O)cc1C(=O)N[C@@H]1C2CCC(/C2=C/C(F)(F)F)[C@@H]1C(=O)Nc1ccc(F)c(C(F)(F)F)c1` (some centres unmarked) [compound 312], the EC50 was found to be 9 nM.
The value for `COc1ccc(C2=NOC3COCC23)cc1C(=O)N[C@H]1[C@@H](C(=O)Nc2cc(OC(F)(F)F)ccc2F)[C@H]2CC[C@@H]1/C2=C\C1CC1` (some centres unmarked) [compound 762] was 2 nM; that for `COc1ccc(C2=NO[C@H]3C[C@H](CO)C[C@@H]23)cc1C(=O)N[C@H]1[C@@H](C(=O)N[C@H](C)C2(C)CC2)[C@H]2CC[C@@H]1/C2=C\C1CCCC1` [compound 817] was 1.9 nM; that for `COc1ccc(C2=NOC(C(=O)O)(C(C)(C)C)C2)cc1C(=O)N[C@H]1[C@@H](C(=O)Nc2ccc(F)c(C(F)(F)F)c2)[C@H]2CC[C@@H]1/C2=C\C(F)(F)F` (stereo partly drawn) [Example 397, 5-(tert-butyl)-3-(3-(((1R,2R,3S,4R,Z)-3-((4-fluoro-3-(trifluoromethyl)phenyl)carbamoyl)-7-(2,2,2-trifluoroethylidene)bicyclo[2.2.1]heptan-2-yl)carbamoyl)-4-methoxyphenyl)-4,5-dihydroisoxazole-5-carboxylic acid] was 912 nM.
Turning to `COc1ccc(C2=NOC3CC(C)(CO)CC23)cc1C(=O)N[C@H]1[C@@H](C(=O)Nc2ccc(F)c(C(F)(F)F)c2)[C@H]2CC[C@@H]1/C2=C\C1CC1` (some centres unmarked) [compound 735], the EC50 was found to be 1.3 nM.
The figure for `COc1ccc(C2=NOC3CC(CO)CC23)cc1C(=O)N[C@H]1[C@@H](C(=O)N[C@H](C)C2(C)CC2)[C@H]2CC[C@@H]1/C2=C\c1csc(C)n1` (some centres unmarked) [compound 742] is 4.7 nM; for `COc1ccc(C2=NOC(CO)C2)cc1C(=O)N[C@@H]1C2CCC(/C2=C/C2CC2)[C@@H]1C(=O)Nc1ccc(F)c(C(F)(F)F)c1` (some centres unmarked) [compound 381] it is 20 nM.
The figure for `COc1ccc(C2=NOC3CC(CO)CC23)cc1C(=O)N[C@@H]1C2CCC(/C2=C/C2CC2)[C@@H]1C(=O)Nc1ccc(F)c(OC(F)(F)F)c1` (some centres unmarked) [compound 972] is 1.9 nM; for `COc1ccc(C2=NOC(C(C)O)C2)cc1C(=O)N[C@H]1[C@@H](C(=O)Nc2ccc(F)c(C(F)(F)F)c2)[C@H]2CC[C@@H]1/C2=C\C1CC1` (single isomer, unassigned) [compound 598] it is 102 nM; for `COc1ccc(C2=NOC3(CCNC3)C2)cc1C(=O)N[C@H]1[C@@H](C(=O)Nc2ccc(F)c(C(F)(F)F)c2)[C@H]2CC[C@@H]1/C2=C\C1CC1` (some centres unmarked) [compound 593] it is 89.8 nM.
Take `COc1ccc(-c2ccnc3c2ncn3CC(=O)O)cc1C(=O)N[C@@H]1C2CCC(/C2=C/C(F)(F)F)[C@@H]1C(=O)Nc1ccc(F)c(C(F)(F)F)c1` (some centres unmarked) [compound 314]: the half-maximal effective concentration (EC50) amounted to 5 nM.
The figure for `CCC/C=C1\[C@H]2CC[C@@H]1[C@H](C(=O)Nc1ccc(F)c(C(F)(F)F)c1)[C@@H]2NC(=O)c1cc(C2=NOC3CC(CO)CC23)cc(F)c1OC` (some centres unmarked) [compound 793] is 2.2 nM.
The figure for `COc1ccc(-c2cc(C(=O)O)ccc2F)cc1C(=O)N[C@@H]1C2CCC(/C2=C/C2CC2)[C@@H]1C(=O)NC(C)c1nccs1` (some centres unmarked) [compound 309] is 4380 nM; for `COc1ccc(C2=NOC3COCC23)cc1C(=O)N[C@H]1[C@@H](C(=O)NC2CCOC(C)(C)C2)[C@H]2CC[C@@H]1/C2=C\C1CC1` (single isomer, unassigned) [compound 679] it is 563 nM.
The figure for `COc1ccc(-c2cc([C@@H](NC(=O)C3CCOCC3)C(F)(F)F)ccc2F)cc1C(=O)N[C@H]1[C@@H](C(=O)Nc2ccc(F)c(C(F)(F)F)c2)[C@H]2CC[C@@H]1/C2=C\C1CCCC1` [compound 956] is 6.1 nM; for `COc1cc(F)c(F)cc1C(=O)N[C@@H]1C2CCC(/C2=C\c2ccccc2)[C@]1(F)C(=O)Nc1ccc(F)c(C(F)(F)F)c1` (some centres unmarked) [Example 52] it is 3000 nM; for `COc1ccc(-c2nc(C(=O)O)co2)cc1C(=O)N[C@@H]1C2CCC(C2=C(C)C)[C@@H]1C(=O)Nc1ccc(F)c(C(F)(F)F)c1` (some centres unmarked) [Example 113] it is 1800 nM.
For the compound `COc1ccc([C@H]2CO[C@@H]3[C@H]2OC[C@H]3O)cc1C(=O)N[C@H]1[C@@H](C(=O)Nc2ccc(F)c(C(F)(F)F)c2)[C@H]2CC[C@@H]1/C2=C\C1CC1` [compound 638], the concentration for a half-maximal effect (EC50) stood at 207 nM.
The figure for `CCOC(=O)c1coc(-c2ccc(OC)c(C(=O)N[C@@H]3C4CCC(C4=C(C)C)[C@@H]3C(=O)Nc3ccc(F)c(C(F)(F)F)c3)c2)n1` (some centres unmarked) [Example 110] is 800 nM; for `COc1ccc(C2=NO[C@H]3C[C@H](CO)C[C@@H]23)cc1C(=O)N[C@H]1[C@@H](C(=O)N[C@H](C)C2(C)CC2)[C@H]2CC[C@@H]1/C2=C\CCC(F)(F)F` [compound 812] it is 0.8 nM; for `COc1ccc(-c2cc(C(COC(=O)NC3CCC3)C(F)(F)F)ccc2F)cc1C(=O)N[C@H]1[C@@H](C(=O)Nc2ccc(F)c(C(F)(F)F)c2)[C@H]2CC[C@@H]1/C2=C\C1CCCC1` (some centres unmarked) [compound 894] it is 1.3 nM.
Turning to `COc1ccc(C2=NOC3CC(C(C)O)CC23)cc1C(=O)N[C@H]1[C@@H](C(=O)Nc2ccc(F)c(C(F)(F)F)c2)[C@H]2CC[C@@H]1/C2=C\C1CC1` (some centres unmarked) [compound 845], the EC50 turned out to be 1.3 nM.
As for `COc1ccc(-c2cc(C3=NOC4CC(O)CC34)ccc2F)cc1C(=O)N[C@H]1[C@@H](C(=O)Nc2ccc(F)c(C(F)(F)F)c2)[C@H]2CC[C@@H]1/C2=C\C1CC1` (some centres unmarked) [compound 908], the half-maximal effective concentration (EC50) worked out at 3.5 nM.

A word on the EC50: it is the concentration at which the effect is half-maximal.
